Measured values from patent publication US11213527B2, “Inhibitory effect of low molecular weight compound on cancer and fibrosis” (NATIONAL UNIVERSITY CORPORATION TOTTORI UNIVERSITY, priority 2014, dated 2022).

Experiments:
cancer stem cells = conditions: Fbxw7-deficient model mice; cited from earlier work
liver fibrosis = test: Liver disease model mice (carbon tetrachloride-induced liver fibrosis); type: in vivo, C57BL/6 male mice; conditions: glycyrrhizin 150 mg/kg, IC-2 10.6 or 21.2 mg/kg intraperitoneally 3 times a week for 4 weeks, vs vehicle
Experimental: First, 7-week-old C57BL/6 male mice (Japan SLC, Shizuoka, Japan) were subject to 1-week preparatory rearing. Among them, healthy mice were used. The mice were housed in an animal cage at a room temperature of 22±1° C. and a humidity of 50±5% throughout the preparatory rearing and experimental period and were given ad libitum access to food and water.
A microsyringe (ITO CORPORATION, Shizuoka, Japan) was used to intraperitoneally administer carbon tetrachloride (CCl4: Wako Pure Chemical Industries, Ltd., Osaka, Japan) at 0.2 ml/kg, 3 times a week, for 4, 6, or 8 weeks. Carbon tetrachloride was dissolved into cone oil (Wako Pure Chemical Industries, Ltd.) at a concentration of 10%. The resulting solution was used. After this carbon tetrachloride solution was administered for 4 weeks, the mice were divided into a vehicle administration group, a glycyrrhizin administration group, an ICG-001 administration group, and an IC-2 administration group. Then, a microsyringe was used to intraperitoneally administer, 3 times a week for 4 weeks, carbon tetrachloride and a drug solution prepared in accordance with the following process. Note that the carbon tetrachloride and the drug solution were alternately administered with one-day interval.
Glycyrrhizin (TOKYO CHEMICAL INDUSTRY CO., LTD., Tokyo, Japan) was dissolved in physiological saline. The solution was prepared at a concentration of 30 mg/ml while the pH was adjusted to 7.0 with 4 M NaOH liquid. IC-2 and ICG-001 (AdooQ BioScience, California, USA) were each dissolved in a WellSolve (Celeste Corporation, Tokyo, Japan) at a concentration of 40 mg/ml and 10 mg/ml, respectively. Next, the mixture was heated for 10 min in a hot water bath at 60° C. and was then completely dissolved. A 9-fold volume of physiological saline was added to the WellSolve solution in which the above drugs had each been dissolved. […] Note that an IC-2 dosage was determined on the basis of an effective concentration in vitro. […]

Question: For `Cc1ccc(NC(=O)c2ccc(CN3CCN(C)CC3)cc2)cc1Nc1nccc(-c2cccnc2)n1` [imatinib], which “killing of cancer stem cells” value (cancer stem cells) is on record?
Answer: cancer stem cells were killed

Question: For `CC1(C)[C@@H](O[C@H]2O[C@H](C(=O)O)[C@@H](O)[C@H](O)[C@H]2O[C@@H]2O[C@H](C(=O)O)[C@@H](O)[C@H](O)[C@H]2O)CC[C@]2(C)[C@H]3C(=O)C=C4[C@@H]5C[C@@](C)(C(=O)O)CC[C@]5(C)CC[C@@]4(C)[C@]3(C)CC[C@@H]12` [glycyrrhizin, Glycyrrhizin, reference compound], which content of hydroxyproline (liver fibrosis) is on record?
Answer: reduced content of hydroxyproline
